Data published in patent US3953449A, “2-(4-M-CF3 or -SCF3 phenylpiperazino)-ethyl benzoates” (priority 1973, dated 1976).
Where two headings read alike, the source gives them in different places.

Key:
[1] = Acute toxicity, 50% lethal dose (LD50), oral administration, mice; conditions: mouse, in vivo, Swiss mice of the CDl strain, both sexes, calculated graphically
Procedure: The tests were carried out on Swiss mice of the CDl strain, of both sexes, and the 50% lethal doses (LD50) were calculated graphically.

[2] = system: pain induced in CDl mice by the intraperitoneal injection of acetic acid; test: Koster test: analgesic effect against pain induced by intraperitoneal injection of acetic acid, oral administration; type: in vivo; conditions: Mus musculus, read-out: Analgesic activity, Koster test ED50 (50% effective dose)
Source text: The analgesic effect was investigated in accordance with two conventional experimental procedures.

[3] = oral administration, CDl mice, acetic acid i.p.

In the case of CC(=O)OCCN1CCN(c2cccc(C(F)(F)F)c2)CC1 [SLB 093, 2-(4-m-Trifluoromethylphenylpiperazino)-ethyl acetate], the LD50 [1] is reported as 925 mg/kg and the ED50 [2, 3] is reported as 3.5 mg/kg.

CCCC(CCC)C(=O)OCCN1CCN(c2cccc(C(F)(F)F)c2)CC1 [SLB 198, 2-(4-m-Trifluoromethylphenyl-piperazino)-ethyl 2-n-propyl-pentanoate] showed an LD50 [1] of 2200 mg/kg and an ED50 [2, 3] of 4.3 mg/kg.

O=C(OCCN1CCN(c2cccc(C(F)(F)F)c2)CC1)c1ccccc1 [SLB 108, 2-(4-m-Trifluoromethylphenylpiperazino)-ethyl benzoate] gave an LD50 [1] of over 4000 mg/kg and an ED50 ([2]; po) of 10 mg/kg.

Cc1c(N(C)C)c(=O)n(-c2ccccc2)n1C [Amidopyrine, reference compound] gave an ED50 [2, 3] of 40 mg/kg.

With COc1cc(C(=O)OCCN2CCN(c3cccc(C(F)(F)F)c3)CC2)cc(OC)c1OC [SLB 169, 2-(4-m-Trifluoromethylphenylpiperazino)-ethyl 3,4,5-trimethoxybenzoate] the LD50 [1] was 2200 mg/kg and the ED50 [2, 3] was 15 mg/kg.
